We go through 31 compounds from US12351580B2, “NLRP3 modulators” (Innate Tumor Immunity, Inc., priority 2017, dated 2025).

Counter-ions that a name gives are not always drawn.

One assay addresses T1, TLR7 (Homo sapiens, UniProt Q9NYK1).
T1 construct: host or cells: HEK-Blue cells (human HEK) co-expressing TLR7 and an NF-kB/AP1-inducible SEAP reporter
T1 sequence (Q9NYK1 27-1049): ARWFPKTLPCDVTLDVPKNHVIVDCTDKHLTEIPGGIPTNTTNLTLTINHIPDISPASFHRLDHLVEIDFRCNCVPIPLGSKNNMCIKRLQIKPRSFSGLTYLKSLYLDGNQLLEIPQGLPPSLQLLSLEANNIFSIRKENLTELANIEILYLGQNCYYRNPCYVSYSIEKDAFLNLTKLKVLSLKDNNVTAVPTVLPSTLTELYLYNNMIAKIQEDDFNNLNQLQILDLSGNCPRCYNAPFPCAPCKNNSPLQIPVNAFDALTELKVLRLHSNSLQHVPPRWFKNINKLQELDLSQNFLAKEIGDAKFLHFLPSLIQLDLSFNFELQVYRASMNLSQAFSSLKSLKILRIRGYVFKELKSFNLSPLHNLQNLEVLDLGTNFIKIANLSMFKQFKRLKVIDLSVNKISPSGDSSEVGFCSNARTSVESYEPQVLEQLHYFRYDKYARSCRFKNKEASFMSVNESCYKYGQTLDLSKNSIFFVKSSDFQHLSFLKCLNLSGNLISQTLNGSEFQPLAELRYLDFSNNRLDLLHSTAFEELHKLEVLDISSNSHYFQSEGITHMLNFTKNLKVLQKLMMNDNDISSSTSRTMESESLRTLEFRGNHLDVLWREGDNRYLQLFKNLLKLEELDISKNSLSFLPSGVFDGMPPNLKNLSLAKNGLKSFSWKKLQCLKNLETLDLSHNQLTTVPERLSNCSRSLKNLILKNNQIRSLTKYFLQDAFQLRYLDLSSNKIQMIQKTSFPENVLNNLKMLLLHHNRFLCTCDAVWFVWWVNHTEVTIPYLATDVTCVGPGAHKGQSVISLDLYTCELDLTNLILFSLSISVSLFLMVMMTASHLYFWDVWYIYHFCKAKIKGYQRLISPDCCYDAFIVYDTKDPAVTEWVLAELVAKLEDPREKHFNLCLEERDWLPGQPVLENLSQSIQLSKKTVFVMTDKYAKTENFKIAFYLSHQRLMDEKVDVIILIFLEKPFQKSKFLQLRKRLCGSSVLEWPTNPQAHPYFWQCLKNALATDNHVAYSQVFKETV
Kind of assay: In vitro human TLR7 binding reporter assay (HEK-Blue, NF-kB/AP1-inducible SEAP). Type of assay: cell-based. The settings on record: activity range symbols. In a few lines:
(§1)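 Reporter cells are plated at 15,000 per well and rested 24 h. Next day, test compounds or DMSO are dispensed, followed by 18 h incubation at 37 °C, 5% CO2.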
(In general: A reporter such as luciferase makes a cellular process visible.)

The next assay has as its target T2, TLR8 (Homo sapiens, UniProt Q9NR97).
T2 construct: host or cells: HEK-Blue cells (human HEK) co-expressing TLR8 and an NF-kB/AP1-inducible SEAP reporter
T2 sequence (Q9NR97 27-1041): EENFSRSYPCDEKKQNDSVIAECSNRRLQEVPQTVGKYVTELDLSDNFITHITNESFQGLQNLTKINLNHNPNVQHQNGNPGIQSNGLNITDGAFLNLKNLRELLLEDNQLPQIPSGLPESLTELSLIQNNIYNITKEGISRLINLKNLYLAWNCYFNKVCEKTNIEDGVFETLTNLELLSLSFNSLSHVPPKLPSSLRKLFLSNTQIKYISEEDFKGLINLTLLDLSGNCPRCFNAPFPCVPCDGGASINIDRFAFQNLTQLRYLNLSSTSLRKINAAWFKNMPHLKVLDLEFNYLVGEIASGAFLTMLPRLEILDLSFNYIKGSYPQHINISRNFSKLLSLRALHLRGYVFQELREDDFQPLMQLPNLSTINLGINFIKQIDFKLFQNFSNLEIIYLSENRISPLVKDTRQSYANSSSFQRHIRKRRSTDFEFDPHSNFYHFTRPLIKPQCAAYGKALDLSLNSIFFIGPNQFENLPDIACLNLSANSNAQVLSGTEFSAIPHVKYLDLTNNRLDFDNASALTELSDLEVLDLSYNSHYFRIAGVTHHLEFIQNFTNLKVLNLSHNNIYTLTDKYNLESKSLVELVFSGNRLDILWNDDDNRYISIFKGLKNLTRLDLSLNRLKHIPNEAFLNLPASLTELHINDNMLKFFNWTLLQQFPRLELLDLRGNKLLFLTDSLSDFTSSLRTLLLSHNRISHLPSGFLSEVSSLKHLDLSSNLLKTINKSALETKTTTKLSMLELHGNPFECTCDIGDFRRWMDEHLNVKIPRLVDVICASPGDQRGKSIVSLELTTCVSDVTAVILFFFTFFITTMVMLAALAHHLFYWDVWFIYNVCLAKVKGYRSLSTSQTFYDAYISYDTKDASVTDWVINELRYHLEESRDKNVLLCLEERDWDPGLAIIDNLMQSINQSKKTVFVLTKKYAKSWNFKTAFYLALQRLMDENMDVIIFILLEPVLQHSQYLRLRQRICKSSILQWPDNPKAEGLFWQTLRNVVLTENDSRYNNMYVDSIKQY
Description: In vitro human TLR8 binding reporter assay (HEK-Blue, NF-kB/AP1-inducible SEAP). Type of assay: cell-based. The settings on record: activity range symbols. In a few lines: as §1

With `CCNCc1nc2c(N)nc3cc(-c4cc[nH]n4)ccc3c2[nH]1` [Compound 101, 2-[(Ethylamino)methyl]-7-(1H-pyrazol-3-yl)-1H-imidazo[4,5-c]quinolin-4-amine hydrochloride], the EC50 on TLR7 and at TLR8 was greater than 100 µM in each case.

Take `CC(=O)N(C)Cc1nc2c(N)nc3cc(-n4cccn4)ccc3c2[nH]1` [Compound 102, N-((4-Amino-7-(1H-pyrazol-1-yl)-1H-imidazo[4,5-c]quinolin-2-yl)methyl)-N-methylacetamide]: the EC50 at TLR7 and at TLR8 was greater than 100 µM each time.

Turning to `CN(Cc1nc2c(N)nc3cc(-n4cccn4)ccc3c2[nH]1)S(C)(=O)=O` [Compound 119], the EC50 on TLR7 and on TLR8 was greater than 100 µM each time.

Consider `CN(Cc1nc2c(N)nc3cc(-c4cc[nH]n4)ccc3c2[nH]1)C(=O)C1CC1` [Compound 120], for which the EC50 at TLR7 and at TLR8 was greater than 100 µM throughout.

For the compound `CCN(Cc1nc2c(N)nc3cc(-c4cc[nH]n4)ccc3c2n1C)C(C)=O` [Compound 121], the EC50 on TLR7 and on TLR8 was greater than 100 µM throughout.

With `CCC(=O)N(C)Cc1nc2c(N)nc3cc(-c4cc[nH]n4)ccc3c2[nH]1` [Compound 122], the EC50 on TLR7 and on TLR8 was greater than 100 µM in each case.

Turning to `CCN(Cc1nc2c(N)nc3cc(-c4cc[nH]n4)ccc3c2[nH]1)S(C)(=O)=O` [Compound 124], the EC50 at TLR7 and on TLR8 was greater than 100 µM each time.

`CCC(=O)N(CC)Cc1nc2c(N)nc3cc(-c4cc[nH]n4)ccc3c2[nH]1` [Compound 125]: the EC50 on TLR7 and at TLR8 was greater than 100 µM throughout.

In the case of `CCN(Cc1nc2c(N)nc3cc(-c4cc[nH]n4)ccc3c2[nH]1)C(=O)NC` [Compound 128], the 50% effective concentration (EC50) at TLR7 and at TLR8 was greater than 100 µM in each case.

As to `CC(=O)N(C)Cc1nc2c(N)nc3cc(-c4cc[nH]n4)ccc3c2[nH]1` [Compound 129], the EC50 on TLR7 and on TLR8 was greater than 100 µM throughout.

Take `CCN(Cc1nc2c(N)nc3cc(-n4cccn4)ccc3c2[nH]1)C(N)=O` [Compound 130]: the EC50 at TLR7 and at TLR8 was greater than 100 µM throughout.

As for `NCc1nc2c(N)nc3cc(-c4cc[nH]n4)ccc3c2[nH]1` [Compound 131], the EC50 on TLR7 and at TLR8 was greater than 100 µM each time.

On to `CCN(Cc1nc2c(N)nc3cc(-n4nccn4)ccc3c2[nH]1)C(C)=O` [Compound 132], for which the EC50 on TLR7 and at TLR8 was greater than 100 µM in each case.

Consider `CC(c1nc2c(N)nc3cc(-c4cccnc4)ccc3c2[nH]1)N1CCCC1=O` (centres unmarked) [Compound 138], for which the EC50 (in general, the midpoint of the concentration-response curve) at TLR7 is 20 to 100 µM; on TLR8, greater than 100 µM.

With `CC(=O)N(Cc1nc2c(N)nc3cc(-c4cc[nH]n4)ccc3c2[nH]1)C(C)C` [Compound 140], the EC50 at TLR7 and at TLR8 was greater than 100 µM throughout.

For the compound `Nc1nc2ccc(Cl)cc2c2[nH]c(CN3CCCC3=O)nc12` [Compound 141], the EC50 at TLR7 and on TLR8 was greater than 100 µM in each case.

As for `CC(C)(C)OC(=O)NCc1nc2c(N)nc3cc(-c4cc[nH]n4)ccc3c2[nH]1` [Compound 142], the EC50 at TLR7 and on TLR8 was greater than 100 µM throughout.

`Nc1nc2cc(Cl)ccc2c2[nH]c(CN3CCCC3=O)nc12` [Compound 143]: the EC50 at TLR7 was 20 to 100 µM; on TLR8, greater than 100 µM.

Turning to `Nc1nc2cc(-c3ccc(Cl)nc3)ccc2c2[nH]c(CN3CCCC3=O)nc12` [Compound 153], the EC50 on TLR7 was 20 to 100 µM; at TLR8, greater than 100 µM.

Take `CCNCc1nc2c(N)nc3cc(OC)ccc3c2[nH]1` [Compound 154]: the values for the EC50 at TLR7 and at TLR8 were greater than 100 µM and 20 to 100 µM, respectively.

In the case of `CCN(Cc1nc2c(N)nc3cc(-c4ncc[nH]4)ccc3c2[nH]1)C(=O)OC(C)(C)C` [Compound 155], the EC50 at TLR7 and on TLR8 was greater than 100 µM each time.

As to `Nc1nc2cc(-n3ncc4ccccc43)ccc2c2[nH]c(CN3CCCC3=O)nc12` [Compound 157], the EC50 on TLR7 and on TLR8 was 20 to 100 µM throughout.

With `CCN(Cc1nc2c(N)nc3cc(OC)ccc3c2[nH]1)C(C)=O` [Compound 158, N-((4-Amino-7-methoxy-1H-imidazo[4,5-c]quinolin-2-yl)methyl)-N-ethylacetamide], the EC50 on TLR7 and on TLR8 was greater than 100 µM in each case.

Turning to `CCN(Cc1nc2c(N)nc3cc(Cl)c(Cl)cc3c2[nH]1)C(C)=O` [Compound 159], the EC50 on TLR7 and at TLR8 was greater than 100 µM each time.

On to `CCNCc1nc2c(N)nc3cc(-c4ncc[nH]4)ccc3c2[nH]1` [Compound 162], for which the half-maximal effective concentration (EC50) on TLR7 and on TLR8 was greater than 100 µM in each case.

With `CCN(Cc1nc2c(N)nc3cc(-c4cc[nH]n4)ccc3c2[nH]1)CC(C)C` [Compound 453, 2-{[ethyl(2-methylpropyl)amino]methyl}-7-(1H-pyrazol-3-yl)-1H-imidazo[4,5-c]quinolin-4-amine], the EC50 at TLR7 and on TLR8 was greater than 100 µM throughout.

Take `CCN(CC)C(=O)N(CC)Cc1nc2c(N)nc3cc(-c4cc[nH]n4)ccc3c2[nH]1` [Compound 454, 1-{[4-amino-7-(1H-pyrazol-3-yl)-1H-imidazo[4,5-c]quinolin-2-yl]methyl}-1,3,3-triethylurea]: the EC50 at TLR7 and on TLR8 was greater than 100 µM in each case.

Turning to `CCN(Cc1nc2c(N)nc3cc(-c4cc[nH]n4)ccc3c2[nH]1)C(=O)N1CCOCC1` [Compound 455, N-{[4-amino-7-(1H-pyrazol-3-yl)-1H-imidazo[4,5-c]quinolin-2-yl]methyl}-N-ethylmorpholine-4-carboxamide], the EC50 on TLR7 and on TLR8 was greater than 100 µM throughout.

For `CCN(Cc1nc2c(N)nc3cc(-c4cc[nH]n4)ccc3c2[nH]1)C(=O)NC(C)(C)C` [Compound 456, 1-{[4-amino-7-(1H-pyrazol-3-yl)-1H-imidazo[4,5-c]quinolin-2-yl]methyl}-3-tert-butyl-1-ethylurea], the EC50 at TLR7 and on TLR8 was greater than 100 µM in each case.

`CCNC(=O)N(CC)Cc1nc2c(N)nc3cc(-c4cc[nH]n4)ccc3c2[nH]1` [Compound 457, 1-{[4-amino-7-(1H-pyrazol-3-yl)-1H-imidazo[4,5-c]quinolin-2-yl]methyl}-1,3-diethylurea]: the EC50 at TLR7 and on TLR8 was greater than 100 µM throughout.

`CCN(Cc1nc2c(N)nc3cc(-c4cc[nH]n4)ccc3c2[nH]1)S(=O)(=O)N(C)C` [Compound 458, 2-{[(dimethylsulfamoyl)(ethyl)amino]methyl}-7-(1H-pyrazol-3-yl)-1H-imidazo[4,5-c]quinolin-4-amine]: the half-maximal effective concentration (EC50) on TLR7 and on TLR8 was greater than 100 µM throughout.
